Drawing on BindingDB's records for doi:10.7270/Q25T3HZB (Burnham Center For Chemical Genomics, 2010), this text covers IC50 for two molecules.

This test deals with Kappa-type opioid receptor (Homo sapiens, UniProt P41145). In words: kappa opioid receptor blockers, image-based, SAR follow-up (AID 2348).
Sequence of Kappa-type opioid receptor (P41145 whole entry): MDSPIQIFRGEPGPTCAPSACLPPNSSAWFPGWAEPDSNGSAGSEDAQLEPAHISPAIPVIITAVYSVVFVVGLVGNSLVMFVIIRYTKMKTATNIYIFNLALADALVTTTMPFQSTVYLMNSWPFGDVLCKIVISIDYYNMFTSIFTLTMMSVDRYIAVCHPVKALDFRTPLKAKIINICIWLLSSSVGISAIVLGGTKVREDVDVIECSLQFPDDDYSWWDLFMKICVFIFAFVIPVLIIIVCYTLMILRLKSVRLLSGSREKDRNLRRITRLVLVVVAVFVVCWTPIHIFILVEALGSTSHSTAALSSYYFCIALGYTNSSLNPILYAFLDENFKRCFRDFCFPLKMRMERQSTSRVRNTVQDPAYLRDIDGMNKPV

The molecule `Oc1ccc(CN=Nc2ccnc3cc(Cl)ccc23)cc1O` [(4Z)-4-[[2-(7-chloroquinolin-4-yl)hydrazinyl]methylidene]-2-hydroxycyclohexa-2,5-dien-1-one] returned an IC50 of 24.8 µM.

`CCC(N=Nc1ccnc2cc(Cl)ccc12)c1ccc(O)cc1` (configuration not stated) [4-[1-[2-(7-chloroquinolin-4-yl)hydrazinyl]propylidene]cyclohexa-2,5-dien-1-one] came in with an IC50 of 3.62 µM.

In general, IC50 refers to the concentration needed to halve the response being measured. Low values mean greater potency in that assay, high ones weaker potency in that assay.
